Assay results from patent US20110039721A1, “METHOD FOR PREDICTION ABOUT CARCINOGENICITY OF SUBSTANCE IN RODENT” (Chemicals Evaluation and Research Institute, priority 2007, published 2011).
Like-named read-outs stand apart in the source and are kept apart here.

Tests used:
[1] = system: liver; conditions: cited from earlier work
[2] = system: rodent; conditions: cited from earlier work
[3] = classification of the substance (M+/M−); cited from earlier work
[4] = system: mRNA expressed from the genes (A) to (D) in rat liver; test: Behavior of genes (mRNA expression level, oligo-DNA microarray) in rat liver after 28-day oral administration; type: in vivo; conditions: mRNA vs vehicle control group; for Behavior of gene caused by administration of chemical substance, Gene No. 4846 / Behavior of gene caused by administration of chemical substance, Gene No. 2026 / Behavior of gene caused by administration of chemical substance, Gene No. 4218 / Behavior of gene caused by administration of chemical substance, Gene No. 6182 / Behavior of gene caused by administration of chemical substance, Gene No. 5600: gene group (A); for Behavior of gene caused by administration of chemical substance, Gene No. 4846: Unigene No. Rn.144554; for Behavior of gene caused by administration of chemical substance, Gene No. 2026 / Behavior of gene caused by administration of chemical substance, Gene No. 4218: Unigene No. Rn.167075; for Behavior of gene caused by administration of chemical substance, Gene No. 6182: Unigene No. Rn.5834; for Behavior of gene caused by administration of chemical substance, Gene No. 5600: Unigene No. Rn.9836; for Behavior of gene caused by administration of chemical substance, Gene No. 1494 / Behavior of gene caused by administration of chemical substance, Gene No. 2045 / Behavior of gene caused by administration of chemical substance, Gene No. 2203: gene group (B); for Behavior of gene caused by administration of chemical substance, Gene No. 1494: Unigene No. Rn.1430; for Behavior of gene caused by administration of chemical substance, Gene No. 2045: Unigene No. Rn.19329; for Behavior of gene caused by administration of chemical substance, Gene No. 2203: Unigene No. Rn.21240; for Behavior of gene caused by administration of chemical substance, Gene No. 533 / Behavior of gene caused by administration of chemical substance, Gene No. 725 / Behavior of gene caused by administration of chemical substance, Gene No. 1163 / Behavior of gene caused by administration of chemical substance, Gene No. 4973 / Behavior of gene caused by administration of chemical substance, Gene No. 4095 / Behavior of gene caused by administration of chemical substance, Gene No. 1334 / Behavior of gene caused by administration of chemical substance, Gene No. 6620 / Behavior of gene caused by administration of chemical substance, Gene No. 6303 / Behavior of gene caused by administration of chemical substance, Gene No. 5878 / Behavior of gene caused by administration of chemical substance, Gene No. 1131 / Behavior of gene caused by administration of chemical substance, Gene No. 1562 / Behavior of gene caused by administration of chemical substance, Gene No. 1741 / Behavior of gene caused by administration of chemical substance, Gene No. 893 / Behavior of gene caused by administration of chemical substance, Gene No. 6026 / Behavior of gene caused by administration of chemical substance, Gene No. 154 / Behavior of gene caused by administration of chemical substance, Gene No. 1993 / Behavior of gene caused by administration of chemical substance, Gene No. 813 / Behavior of gene caused by administration of chemical substance, Gene No. 2494 / Behavior of gene caused by administration of chemical substance, Gene No. 2546 / Behavior of gene caused by administration of chemical substance, Gene No. 3776 / Behavior of gene caused by administration of chemical substance, Gene No. 3929 / Behavior of gene caused by administration of chemical substance, Gene No. 1119 / Behavior of gene caused by administration of chemical substance, Gene No. 6742 / Behavior of gene caused by administration of chemical substance, Gene No. 5634: gene group (C); for Behavior of gene caused by administration of chemical substance, Gene No. 533: Unigene No. Rn.106184; for Behavior of gene caused by administration of chemical substance, Gene No. 725: Unigene No. Rn.108075; for Behavior of gene caused by administration of chemical substance, Gene No. 1163: Unigene No. Rn.11766; for Behavior of gene caused by administration of chemical substance, Gene No. 4973: Unigene No. Rn.118529; for Behavior of gene caused by administration of chemical substance, Gene No. 4095: Unigene No. Rn.119024; for Behavior of gene caused by administration of chemical substance, Gene No. 1334 / Behavior of gene caused by administration of chemical substance, Gene No. 6620: Unigene No. Rn.120914; for Behavior of gene caused by administration of chemical substance, Gene No. 6303: Unigene No. Rn.123063; for Behavior of gene caused by administration of chemical substance, Gene No. 5878: Unigene No. Rn.143213; for Behavior of gene caused by administration of chemical substance, Gene No. 1131: Unigene No. Rn.144946; for Behavior of gene caused by administration of chemical substance, Gene No. 1562: Unigene No. Rn.14744; for Behavior of gene caused by administration of chemical substance, Gene No. 1741: Unigene No. Rn.1647; for Behavior of gene caused by administration of chemical substance, Gene No. 893: Unigene No. Rn.164817; for Behavior of gene caused by administration of chemical substance, Gene No. 6026: Unigene No. Rn.167685; for Behavior of gene caused by administration of chemical substance, Gene No. 154: Unigene No. Rn.185941; for Behavior of gene caused by administration of chemical substance, Gene No. 1993: Unigene No. Rn.18728; for Behavior of gene caused by administration of chemical substance, Gene No. 813: Unigene No. Rn.201760; for Behavior of gene caused by administration of chemical substance, Gene No. 2494: Unigene No. Rn.23969; for Behavior of gene caused by administration of chemical substance, Gene No. 2546: Unigene No. Rn.24561; for Behavior of gene caused by administration of chemical substance, Gene No. 3776: Unigene No. Rn.43232; for Behavior of gene caused by administration of chemical substance, Gene No. 3929: Unigene No. Rn.4620; for Behavior of gene caused by administration of chemical substance, Gene No. 1119: Unigene No. Rn.9757; for Behavior of gene caused by administration of chemical substance, Gene No. 6742: Unigene No. Rn.9779; for Behavior of gene caused by administration of chemical substance, Gene No. 5634: Unigene No. Rn.9862; for Behavior of gene caused by administration of chemical substance, Gene No. 5726: gene group (D), Unigene No. Rn.9939
In short: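 Male F344 SPF rats, 5 weeks old, four per group, dosed by oral gavage once daily for 28 days with test chemical or matched-volume solvent. Liver total RNA profiled on oligo-DNA microarray. Change ≥1.5-fold or ≤1/1.5 versus vehicle counted as significant if its direction matched that seen with other carcinogens.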

[5] = classification of the substance (Cr+/Cr−)
[6] = classification of the substance (C+/C−)

Compound	Mutagenicity by Ames test [3]	Behavior of gene caused by administration of chemical substance, Gene No. 4846 [4]	Behavior of gene caused by administration of chemical substance, Gene No. 2026 [4]	Behavior of gene caused by administration of chemical substance, Gene No. 4218 [4]	Behavior of gene caused by administration of chemical substance, Gene No. 6182 [4]	Behavior of gene caused by administration of chemical substance, Gene No. 5600 [4]	Behavior of gene caused by administration of chemical substance, Gene No. 1494 [4]	Behavior of gene caused by administration of chemical substance, Gene No. 2045 [4]	Behavior of gene caused by administration of chemical substance, Gene No. 2203 [4]	Behavior of gene caused by administration of chemical substance, Gene No. 533 [4]	Behavior of gene caused by administration of chemical substance, Gene No. 725 [4]	Behavior of gene caused by administration of chemical substance, Gene No. 1163 [4]	Behavior of gene caused by administration of chemical substance, Gene No. 4973 [4]	Behavior of gene caused by administration of chemical substance, Gene No. 4095 [4]	Behavior of gene caused by administration of chemical substance, Gene No. 1334 [4]	Behavior of gene caused by administration of chemical substance, Gene No. 6620 [4]	Behavior of gene caused by administration of chemical substance, Gene No. 6303 [4]	Behavior of gene caused by administration of chemical substance, Gene No. 5878 [4]	Behavior of gene caused by administration of chemical substance, Gene No. 1131 [4]	Behavior of gene caused by administration of chemical substance, Gene No. 1562 [4]	other results
Cc1ccc2cc3c(ccc4ccccc43)c3c2c1CC3 [TS048, 3-Methylcholanthrene]	M+	−	+	−	−	−	−	−	−	−	−	−	−	−	−	−	−	−	−	−	Liver carcinogenicity [1, 5]: Cr−; Carcinogenicity [2, 6]: C+; Behavior of gene caused by administration of chemical substance, Gene No. 1741 [4]: −; Behavior of gene caused by administration of chemical substance, Gene No. 893 [4]: −; Behavior of gene caused by administration of chemical substance, Gene No. 6026 [4]: −; Behavior of gene caused by administration of chemical substance, Gene No. 154 [4]: −; Behavior of gene caused by administration of chemical substance, Gene No. 1993 [4]: −; Behavior of gene caused by administration of chemical substance, Gene No. 813 [4]: −; Behavior of gene caused by administration of chemical substance, Gene No. 2494 [4]: −; Behavior of gene caused by administration of chemical substance, Gene No. 2546 [4]: −; Behavior of gene caused by administration of chemical substance, Gene No. 3776 [4]: −; Behavior of gene caused by administration of chemical substance, Gene No. 3929 [4]: −; Behavior of gene caused by administration of chemical substance, Gene No. 1119 [4]: −; Behavior of gene caused by administration of chemical substance, Gene No. 6742 [4]: −; Behavior of gene caused by administration of chemical substance, Gene No. 5634 [4]: +; Behavior of gene caused by administration of chemical substance, Gene No. 5726 [4]: +
Cc1c2ccccc2c(C)c2c1ccc1ccccc12 [TS047, 7,12-Dimethylbenz [a]anthracene]	M+	−	−	−	−	−	−	−	−	−	+	+	−	−	−	−	−	−	−	−	Liver carcinogenicity ([1]; in vivo): Cr−; Carcinogenicity ([2]; in vivo): C+; Behavior of gene caused by administration of chemical substance, Gene No. 1741 [4]: −; Behavior of gene caused by administration of chemical substance, Gene No. 893 [4]: −; Behavior of gene caused by administration of chemical substance, Gene No. 6026 [4]: −; Behavior of gene caused by administration of chemical substance, Gene No. 154 [4]: −; Behavior of gene caused by administration of chemical substance, Gene No. 1993 [4]: −; Behavior of gene caused by administration of chemical substance, Gene No. 813 [4]: −; Behavior of gene caused by administration of chemical substance, Gene No. 2494 [4]: −; Behavior of gene caused by administration of chemical substance, Gene No. 2546 [4]: −; Behavior of gene caused by administration of chemical substance, Gene No. 3776 [4]: −; Behavior of gene caused by administration of chemical substance, Gene No. 3929 [4]: −; Behavior of gene caused by administration of chemical substance, Gene No. 1119 [4]: −; Behavior of gene caused by administration of chemical substance, Gene No. 6742 [4]: −; Behavior of gene caused by administration of chemical substance, Gene No. 5634 [4]: −; Behavior of gene caused by administration of chemical substance, Gene No. 5726 [4]: +
ClC=C(Cl)Cl [TS022, Trichloroethylene]	M−	+	−	−	+	−	+	+	+	−	−	−	−	−	−	−	−	−	−	−	Liver carcinogenicity [1, 5]: Cr−; Carcinogenicity [2, 6]: C+; Behavior of gene caused by administration of chemical substance, Gene No. 1741 [4]: −; Behavior of gene caused by administration of chemical substance, Gene No. 893 [4]: −; Behavior of gene caused by administration of chemical substance, Gene No. 6026 [4]: −; Behavior of gene caused by administration of chemical substance, Gene No. 154 [4]: −; Behavior of gene caused by administration of chemical substance, Gene No. 1993 [4]: −; Behavior of gene caused by administration of chemical substance, Gene No. 813 [4]: −; Behavior of gene caused by administration of chemical substance, Gene No. 2494 [4]: −; Behavior of gene caused by administration of chemical substance, Gene No. 2546 [4]: −; Behavior of gene caused by administration of chemical substance, Gene No. 3776 [4]: −; Behavior of gene caused by administration of chemical substance, Gene No. 3929 [4]: −; Behavior of gene caused by administration of chemical substance, Gene No. 1119 [4]: −; Behavior of gene caused by administration of chemical substance, Gene No. 6742 [4]: +; Behavior of gene caused by administration of chemical substance, Gene No. 5634 [4]: −; Behavior of gene caused by administration of chemical substance, Gene No. 5726 [4]: −
